Source: US20250313546A1, “NUCLEIC ACID BINDERS” (UNIVERSITY OF STRATHCLYDE, priority 2022, published 2025)
Values after ≈ are worked out from the molar mass of the structure shown. Where two headings read alike, the source gives them in different places.

Tests used:
[1] = test system: Staphylococcus aureus (ATCC 43300); test: Antibacterial MIC, broth microdilution (CLSI); assay type: cell-based; conditions: for MIC80: Staphylococcus aureus, ATCC43300, read-out: MIC80 S. aureus; for S. aureus Selectivity Indices, Group / S. aureus Selectivity Index (SI): SI, IC50 (μM)/MIC80 (μM), HEK293 cytotoxicity; for S. aureus Selectivity Index (SI): numeric value
[2] = test system: Enterococcus faecalis (ATCC 51299); test: Antibacterial MIC, broth microdilution (CLSI); assay type: cell-based; conditions: for MIC80: Enterococcus faecalis, ATCC51299, read-out: MIC80 E. faecalis
[3] = test system: Escherichia coli (ATCC 25922); test: Antibacterial MIC, broth microdilution (CLSI); assay type: cell-based; conditions: Escherichia coli, ATCC25922; read-out: MIC80 E. coli
T. vaginalis = test: Trichomonas resorufin assay; assay type: cell-based; conditions: for IC50: Trichomonas vaginalis, read-out: IC50 T. vaginalis
[4] = test system: Genomic double stranded DNA (salmon); test: Fluorescence intercalator displacement (FID) assay, SYBR-safe probe; conditions: 20 μM compound, 30° C., lower % = stronger binding
Procedure, shortened: (§1)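 Probe displacement was measured at 30 °C in 1 mM phosphate pH 7.4 containing SybrSafe (12500-fold dilution), 3.76 ng/mL nucleic acid (salmon dsDNA or polyAU dsRNA) and 20 μM compound. Fluorescence loss is normalised between probe-only and probe-plus-nucleic-acid controls.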

[5] = test system: PolyAU double stranded RNA; test: as above; conditions: 20 μM compound, 30° C., lower % = stronger binding
Procedure, shortened: as §1

C. neoformans (F10025) = conditions: Cryptococcus neoformans, read-out: MIC99 C. neoformans
[6] = test system: A. fumigatus A1160 (MFIG001); conditions: Aspergillus fumigatus, read-out: MIC99 A. fumigatus A1160
[7] = test system: Rhizopus arrhizus (NEQAS12.35321); conditions: read-out: MIC99 Rhizopus arrhizus
Candida auris (H.17.157) = conditions: for MIC99: Candidozyma auris, read-out: MIC99 Candida auris; for C. auris Selectivity Indices, Group: SI, IC50 (μM)/MIC99 (μg/mL), HEK293 cytotoxicity, Alkyl Amidines and NH Pyrroles
Protocol: (§2) The Minimum Inhibitory Concentration (MIC, at 99% inhibition) of the compounds was determined using the broth microdilution method as recommended by EUCAST (EUCAST Definitive Document E.DEF 9.3.2, Method for the determination of broth dilution minimum inhibitory concentrations of antifungal agents for conidia forming moulds and EUCAST Definitive Document E.DEF 7.3.2 Method for the determination of broth dilution minimum inhibitory concentrations of antifungal agents for yeasts).

[8] = test system: Candida glabrata (ACPF3309); conditions: for MIC99: Nakaseomyces glabratus, read-out: MIC99 Candida glabrata; for C. glabrata Selectivity Indices, Group: SI, IC50 (μM)/MIC99 (μg/mL), HEK293 cytotoxicity, Alkyl Amidines and NH Pyrroles
Protocol: as §2

[9] = test system: SARS-CoV-2 (hCoV-19/Australia/VIC01/2020); test: SARS-CoV-2 microplaque inhibition assay in Vero-E6 cells; assay type: cell-based; conditions: for SARS-CoV-2 Selectivity Indices, Group: SI, IC50 (μM)/IC50 (μM), HEK293 cytotoxicity, Alkyl Amidines and NH Pyrroles
[10] = SI, IC50 (μM)/MIC80 (μM), HEK293 cytotoxicity, Alkyl Amidines and NH Pyrroles
[11] = SI, IC50 (μM)/IC50 (μM), HEK293 cytotoxicity, Alkyl Amidines and NH Pyrroles

SMILES | MIC80 [1] | E. faecalis Selectivity Indices, Group [2, 10] | MIC80 [3] | T. vaginalis Selectivity Indices, Group (T. vaginalis; [11]) | % Normalised Fluorescence with gDNA [4] | % Normalised Fluorescence with polyAU RNA [5] | MIC99 (C. neoformans (F10025)) | MIC99 [6] | MIC99 [7] | MIC99 (Candida auris (H.17.157)) | MIC99 [8] | S. aureus Selectivity Indices, Group ([1]; Alkyl Amidines and NH Pyrroles) | MIC80 [2] | IC50 (T. vaginalis) | further results
CCNC(=N)CCNC(=O)c1cc(NC(=O)c2cc(NC(=O)c3ccc(/C=C/c4ccc(OC)cc4)nc3)cn2C)cn1C [Ia24, (E)-N-(5-((5-((3-(ethylamino)-3-iminopropyl)carbamoyl)-1-methyl-1H-pyrrol-3-yl)carbamoyl)-1-methyl-1H-pyrrol-3-yl)-6-(4-methoxystyryl)nicotinamide] | < 5 µM | C (Group C: 5 < SI <= 10) | > 100 µM | D (Group D: SI > 32) | 1% | 4% | 5 to 25 µg/mL (≈ 8.38 to 41.9 µM) | 25 to 50 µg/mL (≈ 41.9 to 83.8 µM) | > 50 µg/mL | > 50 µg/mL | 5 to 25 µg/mL (≈ 8.38 to 41.9 µM) |  |  |  | T. vaginalis Selectivity Index (SI) (T. vaginalis; SI, IC50 (μM)/IC50 (μM), HEK293 cytotoxicity, numeric value): 69
[H]/N=C(\CCNC(=O)c1cc(NC(=O)c2cc(NC(=O)c3ccc(C=Cc4ccc(N(C)C)cc4)nc3)cn2C)cn1C)NCCCCCCCCC [Ia32, (E)-6-(4-(dimethylamino)styryl)-N-(5-((5-((3-imino-3-(nonylamino)propyl)carbamoyl)-1-methyl-1H-pyrrol-3-yl)carbamoyl)-1-methyl-1H-pyrrol-3-yl)nicotinamide] | < 5 µM |  | > 100 µM |  | 67% | 23% | 5 to 25 µg/mL (≈ 7.06 to 35.3 µM) | > 50 µg/mL | > 50 µg/mL | > 50 µg/mL | 5 to 25 µg/mL (≈ 7.06 to 35.3 µM) | C (Group C: 5 < SI <= 10) | > 100 µM | > 50 µM | 
CCCCNC(=N)CCNC(=O)c1cc(NC(=O)c2cc(NC(=O)c3ccc(/C=C/c4cnc5ccccc5c4)cc3)cn2C)cn1C [Ia34, (E)-N-(3-(butylamino)-3-iminopropyl)-1-methyl-4-(1-methyl-4-(4-(2-(quinolin-3-yl)vinyl)benzamido)-1H-pyrrole-2-carboxamido)-1H-pyrrole-2-carboxamide] | < 5 µM |  | > 100 µM |  | 7% | 6% | 25 to 50 µg/mL (≈ 38.8 to 77.5 µM) | > 50 µg/mL | > 50 µg/mL | > 50 µg/mL | 5 to 25 µg/mL (≈ 7.75 to 38.8 µM) | D (D: SI > 10) | 5 to 25 µM (≈ 3.22 to 16.1 µg/mL) | 1 to 5 µM | S. aureus Selectivity Index (SI) [1]: 15
CCCCCNC(=N)CCNC(=O)c1cc(NC(=O)c2cc(NC(=O)c3ccc(/C=C/c4cnc5ccccc5c4)cc3)cn2C)cn1C [Ia35, (E)-N-(3-imino-3-(pentylamino)propyl)-1-methyl-4-(1-methyl-4-(4-(2-(quinolin-3-yl)vinyl)benzamido)-1H-pyrrole-2-carboxamido)-1H-pyrrole-2-carboxamide] | < 5 µM |  | > 100 µM |  | 21% | 3% | 25 to 50 µg/mL (≈ 37.9 to 75.9 µM) | > 50 µg/mL | > 50 µg/mL | > 50 µg/mL | 5 to 25 µg/mL (≈ 7.59 to 37.9 µM) |  | 5 to 25 µM (≈ 3.29 to 16.5 µg/mL) | 1 to 5 µM | 
Cn1cc(NC(=O)c2cc(NC(=O)c3ccc(/C=C/c4cnc5ccccc5c4)cc3)cn2C)cc1C(=O)NCCC(=N)N1CCCCC1 [Ib1, (E)-N-(3-imino-3-(piperidin-1-yl)propyl)-1-methyl-4-(1-methyl-4-(4-(2-(quinolin-3-yl)vinyl)benzamido)-1H-pyrrole-2-carboxamido)-1H-pyrrole-2-carboxamide] | < 5 µM |  | > 100 µM |  | 23% | 12% | 5 to 25 µg/mL (≈ 7.61 to 38.1 µM) | 5 to 25 µg/mL (≈ 7.61 to 38.1 µM) | 25 to 50 µg/mL (≈ 38.1 to 76.1 µM) | > 50 µg/mL | < 5 µg/mL | D (D: SI > 10) | < 5 µM |  | S. aureus Selectivity Index (SI) [1]: 11; IC50 (T. vaginalis; resorufin assay): 1 to 5 µM
[H]/N=C(\CCNC(=O)c1cc(NC(=O)c2cc(NC(=O)c3ccc(C=Cc4ccc5nonc5c4)cc3)cn2C)cn1C)N1CCCCC1 [Ib2, (E)-4-(4-(2-(benzo[c][1,2,5]oxadiazol-5-yl)vinyl)benzamido)-N-(5-((3-imino-3-(piperidin-1-yl)propyl)carbamoyl)-1-methyl-1H-pyrrol-3-yl)-1-methyl-1H-pyrrole-2-carboxamide] | < 5 µM |  | > 100 µM |  | 12% | 3% | 5 to 25 µg/mL (≈ 7.72 to 38.6 µM) | 5 to 25 µg/mL (≈ 7.72 to 38.6 µM) | 5 to 25 µg/mL (≈ 7.72 to 38.6 µM) | > 50 µg/mL | < 5 µg/mL |  | < 5 µM | < 1 µM | 
COCCOCC[N+](C)(C)CCNC(=O)c1cc(NC(=O)c2cc(NC(=O)c3ccc(/C=C/c4cnc5ccccc5c4)cc3)cn2C)cn1C [Ic18, (E)-2-(2-methoxyethoxy)-N,N-dimethyl-N-(2-(1-methyl-4-(1-methyl-4-(4-(2-(quinolin-3-yl)vinyl)benzamido)-1H-pyrrole-2-carboxamido)-1H-pyrrole-2-carboxamido)ethyl)ethan-1-aminium] | < 5 µM |  | > 100 µM |  |  |  | 5 to 25 µg/mL | > 50 µg/mL | 25 to 50 µg/mL | > 50 µg/mL | < 5 µg/mL |  | < 5 µM | 1 to 5 µM | S. aureus Selectivity Indices, Group ([1]; Quaternary ammoniums): C (Group C: 5 < SI <= 10); E. faecalis Selectivity Indices, Group ([2]; SI, IC50 (μM)/MIC80 (μM), HEK293 cytotoxicity, Quaternary ammoniums): D (Group D: SI > 5); E. faecalis Selectivity Index (SI) ([2]; SI, IC50 (μM)/MIC80 (μM), HEK293 cytotoxicity, numeric value): 5.1; T. vaginalis Selectivity Indices, Group (T. vaginalis; SI, IC50 (μM)/IC50 (μM), HEK293 cytotoxicity, Quaternary ammoniums): C (Group C: 1.5 < SI <= 3)
COc1cccc(/C=C/c2ccc(C(=O)Nc3cc(C(=O)Nc4cc(C(=O)NCCN5CCOCC5)n(C)c4)n(C)c3)cc2)c1 [Ref-1, reference compound] |  | A (Group A: SI < 3) |  | A (Group A: SI < 8) |  |  |  |  |  |  |  | A (Group A: SI < 3) |  |  | SARS-CoV-2 Selectivity Indices, Group [9]: A (Group A: SI < 4.1); C. auris Selectivity Indices, Group (Candida auris (H.17.157)): A (Group A: SI < 0.4); C. glabrata Selectivity Indices, Group [8]: A (Group A: SI < 12)
COc1ccc(/C=C/c2ccc(C(=O)Nc3cc(C(=O)Nc4cc(C(=O)NCCN5CCOCC5)n(C)c4)n(C)c3)cn2)cc1 [Ref-2, reference compound] |  | A (Group A: SI < 3) |  | A (Group A: SI < 8) |  |  |  |  |  |  |  | A (Group A: SI < 3) |  |  | SARS-CoV-2 Selectivity Indices, Group [9]: A (Group A: SI < 4.1); C. auris Selectivity Indices, Group (Candida auris (H.17.157)): A (Group A: SI < 0.4); C. glabrata Selectivity Indices, Group [8]: A (Group A: SI < 12)
COc1cccc(/C=C/c2ccc(C(=O)Nc3cc(C(=O)Nc4cc(C(=O)NCCC(=N)N)n(C)c4)n(C)c3)cc2)c1 [Ref-5, reference compound] |  | A (Group A: SI < 3) |  | A (Group A: SI < 8) |  |  |  |  |  |  |  | A (Group A: SI < 3) |  |  | SARS-CoV-2 Selectivity Indices, Group [9]: A (Group A: SI < 4.1); C. glabrata Selectivity Indices, Group [8]: A (Group A: SI < 12)
CCN(CC)CCCC(C)Nc1ccnc2cc(Cl)ccc12 (stereo not shown) [chloroquine diphosphate, reference compound] |  |  |  |  |  |  |  |  |  |  |  |  |  |  | IC50 ([9]; Severe acute respiratory syndrome coronavirus 2, Vero C1008, read-out: IC50 SARS-CoV-2 infectious viral foci): 0.641 µM
